Assays:
Assay type in all cases: cell-based
mTAAR4 = biological target: T1, mTAAR4 (Mus musculus, UniProt Q5QD15); test: CRE-SEAP reporter gene assay in HEK293 cells transfected with mTAAR4 (fusion with N-terminal sequence of bovine rhodopsin, 'Rho tag'); conditions: FIG. 11B, mTAAR4 required a 'Rho tag' (N-terminal bovine rhodopsin sequence, first 20 amino acids), EC50 ± s.e.m., 4-parameter Hill equation
T1 construct: Full Taar coding regions were cloned into pcDNA3.1; expressed in transfected cells; host or cells: HEK293
T1 sequence (Q5QD15 with tags, fused parts or gaps): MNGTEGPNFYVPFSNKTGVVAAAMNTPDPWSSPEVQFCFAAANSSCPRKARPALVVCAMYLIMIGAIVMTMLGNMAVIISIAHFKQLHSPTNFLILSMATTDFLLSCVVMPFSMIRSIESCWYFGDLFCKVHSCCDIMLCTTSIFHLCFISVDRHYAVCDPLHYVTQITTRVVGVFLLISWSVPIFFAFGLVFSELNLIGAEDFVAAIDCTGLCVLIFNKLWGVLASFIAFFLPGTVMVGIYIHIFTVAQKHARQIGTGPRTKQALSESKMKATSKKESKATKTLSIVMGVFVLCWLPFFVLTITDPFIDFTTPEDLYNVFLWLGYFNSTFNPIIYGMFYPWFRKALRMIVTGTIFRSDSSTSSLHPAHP
Procedure: (A) HEK293 cells were transfected with TAAR4 and reporter plasmids, incubated with urine extracts of species indicated, and assayed for reporter activity (triplicates±SD). […] TAAR4 was expressed as a fusion protein with an N-terminal sequence of bovine rhodopsin, which provided enhanced signal (24). […] Urine (diluted 300- or 100-fold) or urine extracts (diluted 30-, 10-, or 3-fold) of species indicated were tested (triplicates±s.d.).
FIG. 11 illustrates the dose-dependent responses of TAARs to amines. […] EC50 values (±s.e.m, bottom right) were calculated using SigmaPlot (Systat Software) and a 4-parameter Hill equation.
Full Taar coding regions were cloned into pcDNA3.1-(Invitrogen) with or without a 5′ DNA extension of 69 bp encoding the first 20 amino acids of bovine rhodopsin followed by a cloning linker ([sequence]). […] Fluorescence was measured on an EnVision plate reader (Perkin Elmer) and SEAP activity graphed as relative fluorescence of a phosphatase substrate.
HEK293 cells were co-transfected with TAAR expression plasmids and a cAMPdependent reporter gene encoding secreted alkaline phosphatase (CRE-SEAP). Transfected cells were incubated with urine extracts from different mammalian species, and phosphatase activity was quantified with a fluorescent substrate as a reporter for TAAR activation.

mTAAR7b = biological target: T2, mTAAR7b (Mus musculus, UniProt Q5QD11); test: TAAR reporter gene assay, mTAAR7b; parameters: Full Taar coding regions were cloned into pcDNA3.1-(Invitrogen); Rho tag (first 20 aa of bovine rhodopsin + linker); expressed in transfected cells; host or cells: HEK293
T2 sequence (Q5QD11 1-358): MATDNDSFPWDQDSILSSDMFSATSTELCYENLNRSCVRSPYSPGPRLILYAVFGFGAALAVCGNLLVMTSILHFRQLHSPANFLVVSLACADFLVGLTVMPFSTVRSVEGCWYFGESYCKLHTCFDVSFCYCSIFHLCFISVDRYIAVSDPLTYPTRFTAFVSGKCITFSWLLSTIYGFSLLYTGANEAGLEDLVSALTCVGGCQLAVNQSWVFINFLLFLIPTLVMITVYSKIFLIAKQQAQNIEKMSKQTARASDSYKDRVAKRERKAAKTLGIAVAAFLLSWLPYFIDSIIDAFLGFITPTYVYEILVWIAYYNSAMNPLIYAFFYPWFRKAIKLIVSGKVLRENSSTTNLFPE
Text: (§1) Here, we set out to identify agonists for additional mouse and rat TAARs. We examined odor response profiles using a previously established reporter gene assay based on cAMP-dependent odor transduction in olfactory sensory neurons (40, 42). Briefly, TAAR plasmids were transfected into HEK293 cells along with a cAMP-dependent reporter gene encoding secreted alkaline phosphatase (CRE-SEAP). TAARs were expressed both in unmodified form and as fusion proteins with an N-terminal sequence of bovine rhodopsin (‘Rho tag’) that promotes cell surface expression of some chemosensory receptors (35). Transfected cells were incubated with test chemicals, and phosphatase activity was quantified with a fluorescent substrate as a reporter for TAAR activation. In initial experiments, we tested 38 different odorant mixtures containing 244 structurally diverse test chemicals (2-5 μM) for the ability to activate each mTAAR. Subsequently, we tested 73 amines that included known mTAAR agonists and related chemicals for the ability to activate each rTAAR.
(§2) TAAR functional assays. […] Fluorescence was measured on an EnVision plate reader (Perkin Elmer) and SEAP activity graphed as relative fluorescence of a phosphatase substrate.

mTAAR7e = biological target: T3, mTAAR7e (Mus musculus, UniProt Q5QD09); test: TAAR reporter gene assay, mTAAR7e
T3 construct: Full Taar coding regions were cloned into pcDNA3.1-(Invitrogen); Rho tag (first 20 aa of bovine rhodopsin + linker); expressed in transfected cells; host or cells: HEK293
T3 sequence (Q5QD09 1-358): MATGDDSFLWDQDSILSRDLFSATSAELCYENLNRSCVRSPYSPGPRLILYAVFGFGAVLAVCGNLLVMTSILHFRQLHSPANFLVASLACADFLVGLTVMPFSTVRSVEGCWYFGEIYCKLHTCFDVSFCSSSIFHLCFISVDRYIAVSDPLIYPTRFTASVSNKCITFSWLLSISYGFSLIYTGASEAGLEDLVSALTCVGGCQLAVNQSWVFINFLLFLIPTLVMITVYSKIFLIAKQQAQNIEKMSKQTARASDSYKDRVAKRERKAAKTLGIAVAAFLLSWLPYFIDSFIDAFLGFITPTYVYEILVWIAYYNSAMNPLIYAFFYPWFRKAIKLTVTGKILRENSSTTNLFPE
Text: as §1, §2

rTAAR7d = biological target: T4, rTAAR7d (Rattus norvegicus, UniProt Q923X5); test: TAAR reporter gene assay, rTAAR7d; parameters: Full Taar coding regions were cloned into pcDNA3.1-(Invitrogen); Rho tag (first 20 aa of bovine rhodopsin + linker); expressed in transfected cells; host or cells: HEK293
T4 sequence (Q923X5 1-358): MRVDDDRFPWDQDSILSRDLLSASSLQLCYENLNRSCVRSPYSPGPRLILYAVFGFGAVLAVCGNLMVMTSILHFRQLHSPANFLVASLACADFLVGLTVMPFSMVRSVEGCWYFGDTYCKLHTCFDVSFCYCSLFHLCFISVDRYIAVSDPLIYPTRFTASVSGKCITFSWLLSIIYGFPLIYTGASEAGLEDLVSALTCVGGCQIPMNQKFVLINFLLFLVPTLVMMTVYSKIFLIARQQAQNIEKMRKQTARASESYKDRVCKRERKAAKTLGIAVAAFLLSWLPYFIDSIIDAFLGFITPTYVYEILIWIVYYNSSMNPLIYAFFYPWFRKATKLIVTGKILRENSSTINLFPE
Text: as §1, §2

Compound: NCCc1ccccc1 [2-phenylethylamine]
- EC50 (mTAAR4): 7.5 ± 3.7 µM

Compound: CN(C)CCc1ccccc1 [ligand 6, N,N-dimethyl-2-phenylethylamine]
- mTAAR7b activation (mTAAR7b): not
- mTAAR7e activation (mTAAR7e): activated
- rTAAR7d activation (rTAAR7d): not

Compound: CN(C)C1CCCCC1 [ligand 10, N,N-dimethylcyclohexylamine]
- mTAAR7b activation (mTAAR7b): activated
- mTAAR7e activation (mTAAR7e): not
- rTAAR7d activation (rTAAR7d): activated

From US20140221499A1, “NOVEL RODENT CONTROL AGENTS AND USES THEREOF” (priority 2011, published 2014)
